Results as given in patent US10336775B2 (Asceneuron SA, priority 2014, dated 2019).
Where two headings read alike, the source gives them in different places.

Target: His-Tagged hOGA (human O-GlcNAcase) (Homo sapiens (Human), UniProt O60502)
Assay: Human O-GlcNAcase enzyme inhibition assay (Example B01)
Assay type: biochemical
Details: for IC50: OGA enzyme inhibition assay, activity range classes defined in μM; for OGA inhibitor activity (in words): measured according to Example B01

Sequence of His-Tagged hOGA (human O-GlcNAcase) (O60502 whole entry): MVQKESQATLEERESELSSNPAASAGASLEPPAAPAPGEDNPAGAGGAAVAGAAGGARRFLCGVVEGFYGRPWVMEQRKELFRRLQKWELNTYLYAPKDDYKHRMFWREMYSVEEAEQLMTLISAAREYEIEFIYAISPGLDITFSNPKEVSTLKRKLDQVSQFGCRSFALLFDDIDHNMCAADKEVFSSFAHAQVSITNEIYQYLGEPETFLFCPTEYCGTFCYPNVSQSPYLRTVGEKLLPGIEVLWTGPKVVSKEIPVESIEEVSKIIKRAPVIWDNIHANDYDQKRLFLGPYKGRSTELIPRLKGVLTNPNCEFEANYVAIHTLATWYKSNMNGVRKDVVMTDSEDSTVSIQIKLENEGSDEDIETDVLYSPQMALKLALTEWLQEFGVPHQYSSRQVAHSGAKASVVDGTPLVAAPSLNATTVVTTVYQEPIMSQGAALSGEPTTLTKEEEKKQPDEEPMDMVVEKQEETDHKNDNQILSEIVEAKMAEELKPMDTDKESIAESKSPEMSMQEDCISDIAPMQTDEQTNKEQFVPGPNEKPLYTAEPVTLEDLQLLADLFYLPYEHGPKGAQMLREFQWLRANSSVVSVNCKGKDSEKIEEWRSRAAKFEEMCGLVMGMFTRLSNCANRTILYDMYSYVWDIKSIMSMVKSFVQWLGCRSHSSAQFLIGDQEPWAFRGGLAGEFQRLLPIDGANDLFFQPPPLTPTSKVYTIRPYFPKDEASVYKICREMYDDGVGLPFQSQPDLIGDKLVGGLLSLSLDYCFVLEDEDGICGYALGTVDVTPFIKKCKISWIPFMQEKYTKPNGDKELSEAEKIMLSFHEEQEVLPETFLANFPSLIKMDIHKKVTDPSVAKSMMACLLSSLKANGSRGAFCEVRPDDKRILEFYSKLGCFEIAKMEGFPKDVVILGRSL

SMILES	IC50 (read-out: OGA IC50) [µM]	other results
Cc1csc(C2CCN(C(C)c3ccc4c(c3)OCO4)CC2)n1 (racemic) [Example 1, 2-(1-(1-(Benzo[d][1,3]dioxol-5-yl)ethyl)piperidin-4-yl)-4-methylthiazole]	0.2 to 1	–
Cc1nnc(C2CCN(C(C)c3ccc4c(c3)OCO4)CC2)o1 (racemic) [Example 2, 2-(1-(1-(benzo[d][1,3]dioxol-5-yl)ethyl)piperidin-4-yl)-5-methyl-1,3,4-oxadiazole]	0.2 to 1	–
Cc1cnn(C2CCN(C(C)c3ccc4c(c3)OCO4)CC2)c1 (racemic) [Example 3, 1-(1-(benzo[d][1,3]dioxol-5-yl)ethyl)-4-(4-methyl-1H-pyrazol-1-yl)piperidine]	1 to 10	–
Cc1noc(C2CCN(C(C)c3ccc4c(c3)OCO4)CC2)n1 (racemic) [Example 4, 5-(1-(1-(Benzo[d][1,3]dioxol-5-yl)ethyl)piperidin-4-yl)-3-methyl-1,2,4-oxadiazole]	0.2 to 1	–
CC(c1ccc2c(c1)OCO2)N1CCN(c2nc(-c3ccccc3)cs2)CC1 (racemic) [Example 5, 2-(4-(1-(Benzo[d][1,3]dioxol-5-yl)ethyl)piperazin-1-yl)-4-phenylthiazole]	0.2 to 1	–
COc1ccc(-c2csc(N3CCN(C(C)c4ccc5c(c4)OCO5)CC3)n2)cc1 (racemic) [Example 6, 2-(4-(1-(Benzo[d][1,3]dioxol-5-yl)ethyl)piperazin-1-yl)-4-(4-methoxyphenyl)thiazole]	1 to 10	–
CC(C)c1csc(N2CCN(C(C)c3ccc4c(c3)OCO4)CC2)n1 (racemic) [Example 12, 2-(4-(1-(Benzo[d][1,3]dioxol-5-yl)ethyl)piperazin-1-yl)-4-isopropylthiazole]	0.2 to 1	–
CC(c1ccc2c(c1)OCO2)N1CCN(c2nc(C(F)(F)F)cs2)CC1 (racemic) [Example 13, 2-(4-(1-(Benzo[d][1,3]dioxol-5-yl)ethyl)piperazin-1-yl)-4-(trifluoromethyl)thiazole]	0.2 to 1	–
CC(c1ccc2c(c1)OCO2)N1CCN(c2nc(C(C)(C)C)cs2)CC1 (racemic) [Example 16, 2-(4-(1-(benzo[d][1,3]dioxol-5-yl)ethyl)piperazin-1-yl)-4-(tert-butyl)thiazole]	1 to 10	–
CCOC(=O)c1csc(N2CCN(C(C)c3ccc4c(c3)OCO4)CC2)n1 (racemic) [Example 17, Ethyl 2-(4-(1-(benzo[d][1,3]dioxol-5-yl)ethyl)piperazin-1-yl)thiazole-4-carboxylate]	0.2 to 1	–
CC(c1ccc2c(c1)OCO2)N1CCN(c2nc(C(=O)O)cs2)CC1 (racemic) [Example 18, 2-(4-(1-(Benzo[d][1,3]dioxol-5-yl)ethyl)piperazin-1-yl)thiazole-4-carboxylic acid]	0.05 to 0.2	–
CCc1csc(N2CCN(C(C)c3ccc4c(c3)OCO4)CC2)n1 (racemic) [Example 19, 2-(4-(1-(Benzo[d][1,3]dioxol-5-yl)ethyl)piperazin-1-yl)-4-ethylthiazole]	0.2 to 1	–
CCOC(=O)c1cnc(N2CCN(C(C)c3ccc4c(c3)OCO4)CC2)s1 (racemic) [Example 27, Ethyl 2-(4-(1-(benzo[d][1,3]dioxol-5-yl)ethyl)piperazin-1-yl)thiazole-5-carboxylate]	0.2 to 1	–
CNC(=O)c1csc(N2CCN(C(C)c3ccc4c(c3)OCO4)CC2)n1 (racemic) [Example 30, 2-(4-(1-(Benzo[d][1,3]dioxol-5-yl)ethyl)piperazin-1-yl)-N-methylthiazole-4-carboxamide]	0.05 to 0.2	–
CC(C)NC(=O)c1csc(N2CCN(C(C)c3ccc4c(c3)OCO4)CC2)n1 (racemic) [Example 32, 2-(4-(1-(Benzo[d][1,3]dioxol-5-yl)ethyl)piperazin-1-yl)-N-isopropylthiazole-4-carboxamide]	0.2 to 1	–
CC(c1ccc2c(c1)OCO2)N1CCN(c2nc(C(=O)NC3CCCCC3)cs2)CC1 (racemic) [Example 33, 2-(4-(1-(Benzo[d][1,3]dioxol-5-yl)ethyl)piperazin-1-yl)-N-cyclohexylthiazole-4-carboxamide]	0.2 to 1	–
CC(c1ccc2c(c1)OCO2)N1CCN(c2nc(C(=O)N(C)C)cs2)CC1 (racemic) [Example 42, 2-(4-(1-(benzo[d][1,3]dioxol-5-yl)ethyl)piperazin-1-yl)-N,N-dimethylthiazole-4-carboxamide]	0.2 to 1	–
CC(C)NC(=O)c1cnc(N2CCN(C(C)c3ccc4c(c3)OCO4)CC2)s1 (racemic) [Example 43, 2-(4-(1-(Benzo[d][1,3]dioxol-5-yl)ethyl)piperazin-1-yl)-N-isopropylthiazole-5-carboxamide]	0.05 to 0.2	–
CC(c1ccc2c(c1)OCO2)N1CCN(c2ncc(C(=O)N(C)C)s2)CC1 (racemic) [Example 47, 2-(4-(1-(Benzo[d](1,3)dioxol-5-yl)ethyl)piperazin-1-yl)-N,N-dimethylthiazole-5-carboxamide]	–	IC50 (OGA IC50 (M)): 0.05 to 0.2 µM
CC(c1ccc2c(c1)OCCO2)N1CCN(c2nc(C(N)=O)cs2)CC1 (racemic) [Example 49, 2-(4-(1-(2,3-Dihydrobenzo[b][1,4]dioxin-6-yl)ethyl)piperazin-1-yl)thiazole-4-carboxamide]	0.2 to 1	–

Continued, in another order:

IC50 (read-out: OGA IC50) [µM]	SMILES	other results
0.2 to 1	CC(c1ccc2c(c1)OCO2)N1CCN(c2nccs2)CC1 (racemic) [Example 7, 2-(4-(1-(Benzo[d][1,3]dioxol-5-yl)ethyl)piperazin-1-yl)thiazole]	–
0.05 to 0.2	CC(c1ccc2c(c1)OCO2)N1CCN(c2cnc(I)nc2)CC1 (racemic) [Example 8, -5-(4-(1-(benzo[d][1,3]dioxol-5-yl)ethyl)piperazin-1-yl)-2-iodopyrimidine]	–
0.2 to 1	Cc1ccnc(N2CCN(C(C)c3ccc4c(c3)OCO4)CC2)n1 (racemic) [Example 9, 2-(4-(1-(Benzo[d][1,3]dioxol-5-yl)ethyl)piperazin-1-yl)-4-methylpyrimidine]	–
0.2 to 1	CC(c1ccc2c(c1)OCO2)N1CCN(c2ccccn2)CC1 (racemic) [Example 10, 1-(1-(Benzo[d][1,3]dioxol-5-yl)ethyl)-4-(pyridin-2-yl)piperazine]	–
0.2 to 1	Cc1ccc(N2CCN(C(C)c3ccc4c(c3)OCO4)CC2)nc1 (racemic) [Example 14, 1-(1-(Benzo[d][1,3]dioxol-5-yl)ethyl)-4-(5-methylpyridin-2-yl)piperazine]	–
0.2 to 1	CC(c1ccc2c(c1)OCO2)N1CCN(c2ccc(Cl)cn2)CC1 (racemic) [Example 20]	–
0.2 to 1	Cc1cccc(N2CCN(C(C)c3ccc4c(c3)OCO4)CC2)n1 (racemic) [Example 21, 1-(1-(Benzo[d][1,3]dioxol-5-yl)ethyl)-4-(6-methylpyridin-2-yl)piperazine]	–
0.05 to 0.2	CC(c1ccc2c(c1)OCO2)N1CCN(c2nccc(N)n2)CC1 (racemic) [Example 22, 2-(4-(1-(Benzo[d][1,3]dioxol-5-yl)ethyl)piperazin-1-yl)pyrimidin-4-amine]	–
0.05 to 0.2	CC(=O)Nc1ccnc(N2CCN(C(C)c3ccc4c(c3)OCO4)CC2)n1 (racemic) [Example 23, N-(2-(4-(1-(Benzo[d][1,3]dioxol-5-yl)ethyl)piperazin-1-yl)pyrimidin-4-yl)acetamide]	–
0.05 to 0.2	CC(c1ccc2c(c1)OCO2)N1CCN(c2cc(Cl)ncn2)CC1 (racemic) [Example 24, 4-(4-(1-(Benzo[d][1,3]dioxol-5-yl)ethyl)piperazin-1-yl)-6-chloropyrimidine]	–
0.05 to 0.2	CC(c1ccc2c(c1)OCO2)N1CCN(c2cnc(Cl)cn2)CC1 (racemic) [Example 25]	–
0.05 to 0.2	CC(c1ccc2c(c1)OCO2)N1CCN(c2ncc(CO)s2)CC1 (racemic) [Example 28, (2-(4-(1-(Benzo[d][1,3]dioxol-5-yl)ethyl)piperazin-1-yl)thiazol-5-yl)methanol]	–
0.05 to 0.2	CC(c1ccc2c(c1)OCO2)N1CCN(c2nc(CO)cs2)CC1 (racemic) [Example 29, (2-(4-(1-(Benzo[d][1,3]dioxol-5-yl)ethyl)piperazin-1-yl)thiazol-4-yl)methanol]	–
0.05 to 0.2	CC(c1ccc2c(c1)OCO2)N1CCN(c2nc(C(N)=O)cs2)CC1 (racemic) [Example 35, 2-(4-(1-(Benzo[d][1,3]dioxol-5-yl)ethyl)piperazin-1-yl)thiazole-4-carboxamide]	–
0.05 to 0.2	Cc1cnc(N2CCN(C(C)c3ccc4c(c3)OCO4)CC2)s1 (racemic) [Example 36]	–
< 0.05	Cc1ncc(N2CCN(C(C)c3ccc4c(c3)OCO4)CC2)s1 (racemic) [Example 37, 5-(4-(1-(Benzo[d][1,3]dioxol-5-yl)ethyl)piperazin-1-yl)-2-methylthiazole]	OGA inhibitor activity (in words): very potent OGA inhibitors
0.05 to 0.2	CC(c1ccc2c(c1)OCO2)N1CCN(c2ncc(Cl)cn2)CC1 (racemic) [Example 38]	–
0.05 to 0.2	COc1ccnc(N2CCN(C(C)c3ccc4c(c3)OCO4)CC2)n1 (racemic) [Example 39, 2-(4-(1-(Benzo[d][1,3]dioxol-5-yl)ethyl)piperazin-1-yl)-4-methoxypyrimidine]	–
0.05 to 0.2	CC(c1ccc2c(c1)OCO2)N1CCN(c2ccnc(Cl)n2)CC1 (racemic) [Example 40, 4-(4-(1-(Benzo[d][1,3]dioxol-5-yl)ethyl)piperazin-1-yl)-2-chloropyrimidine]	–
0.05 to 0.2	CC(c1ccc2c(c1)OCO2)N1CCN(c2nnc(N)s2)CC1 (racemic) [Example 41, 5-(4-(1-(benzo[d][1,3]dioxol-5-yl)ethyl)piperazin-1-yl)-1,3,4-thiadiazol-2-amine]	–
0.2 to 1	CCCNc1ccnc(N2CCN(C(C)c3ccc4c(c3)OCO4)CC2)n1 (racemic) [Example 45, 2-(4-(1-(Benzo[d][1,3]dioxol-5-yl)ethyl)piperazin-1-yl)-N-propylpyrimidin-4-amine]	–
0.05 to 0.2	CC(c1ccc2c(c1)OCO2)N1CCN(c2ccnc(N)n2)CC1 (racemic) [Example 46, 4-(4-(1-(Benzo[d][1,3]dioxol-5-yl)ethyl)piperazin-1-yl)pyrimidin-2-amine]	–
< 0.05	CC(c1ccc2c(c1)OCO2)N1CCN(c2ncc(C(N)=O)s2)CC1 (racemic) [Example 48, 2-(4-(1-(Benzo[d](1,3)dioxol-5-yl)ethyl)piperazin-1-yl)thiazole-5-carboxamide]	OGA inhibitor activity (in words): very potent OGA inhibitors
